Results on 16 compounds are retold here after ChEMBL document CHEMBL3588745, “Optimization of ADME Properties for Sulfonamides Leading to the Discovery of a T-Type Calcium Channel Blocker, ABT-639” (ACS Med Chem Lett, 2015).

Data set [1] is described as follows: Stability in rat liver microsomes assessed as compound remaining at 1 uM after 30 mins. The settings on record: read-out: Stability. The format is ADME. On the technique in general: Microsomes from liver hold many membrane-bound enzymes, among them those of drug oxidation.
Data set [2] can be described thus: Terminal phase volume of distribution in rat at 5 uM/kg, iv or 30 uM/kg, po. The format is ADME, organism-based. As to conditions: in vivo, read-out: Vbeta.
Data set [3] is described as follows: Plasma clearance in rat at 5 uM/kg, iv or 30 uM/kg, po. It is filed as ADME, organism-based.
Data set [4] deals with T1, Voltage-dependent T-type calcium channel subunit alpha-1H (Homo sapiens, UniProt O95180). Description: Inhibition of human recombinant Cav3.2 channel at 10 uM.
Data set [5] deals with Rattus norvegicus. The data set is described as follows: Antinociceptive activity in Sprague-Dawley rat model of capsaicin-induced secondary mechanical hyperalgesia model assessed as attenuation of nociception at 500 uM/kg, ip administered 1 hr before behavioral testing by von Frey filaments test. The format is functional, organism-based.
Data set [6] concerns the target T1, Voltage-dependent T-type calcium channel subunit alpha-1H. Description: Inhibition of human recombinant Cav3.2 channel.
A short description of data set [7]: Stability in human liver microsomes assessed as compound remaining at 1 uM after 30 mins. The format is ADME. The settings on record: read-out: Stability.
Data set [8] can be described thus: Stability in dog liver microsomes assessed as compound remaining at 1 uM after 30 mins. It is filed as ADME, Canis lupus familiaris. The settings on record: read-out: Stability.
Data set [9] is described as follows: Stability in monkey liver microsomes assessed as compound remaining at 1 uM after 30 mins. The format is ADME, Macaca mulatta. The settings on record: rhesus monkey, read-out: Stability.
In data set [10] the target is Voltage-dependent T-type calcium channel subunit alpha-1H (Rattus norvegicus, UniProt Q9EQ60). The data set is described as follows: Inhibition of Cav3.2 channel in rat DRG neurons assessed as reduction in LVA currents.
The nature of data set [11]: Aqueous solubility in phosphate buffer at pH 7.4. It is filed as physicochemical.
Data set [12] is described as follows: Solubility in 0.1 HCl solution. The format is physicochemical.
A short description of data set [13]: Protein binding in rat. It is filed as ADME, organism-based. The settings on record: plasma, read-out: PB (converted).
A short description of data set [14]: Protein binding in human. The format is ADME, organism-based. The settings on record: plasma, read-out: PB (converted).
In data set [15] the target is T2, Nuclear receptor subfamily 1 group I member 2 (Homo sapiens, UniProt O75469).
T2 sequence (O75469 whole entry): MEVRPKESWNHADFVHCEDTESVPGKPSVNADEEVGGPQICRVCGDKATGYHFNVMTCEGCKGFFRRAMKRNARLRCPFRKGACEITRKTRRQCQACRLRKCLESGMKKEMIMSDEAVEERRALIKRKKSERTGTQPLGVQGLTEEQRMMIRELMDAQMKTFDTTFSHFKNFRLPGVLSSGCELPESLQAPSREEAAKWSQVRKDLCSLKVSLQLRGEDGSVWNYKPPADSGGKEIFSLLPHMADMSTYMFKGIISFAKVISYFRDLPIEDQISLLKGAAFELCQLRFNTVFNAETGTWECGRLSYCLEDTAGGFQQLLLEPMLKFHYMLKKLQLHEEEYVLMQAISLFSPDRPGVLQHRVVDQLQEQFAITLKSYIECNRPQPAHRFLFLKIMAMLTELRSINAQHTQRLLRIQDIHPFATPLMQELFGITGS
Description: Activation of PXR (unknown origin) assessed as induction of CYP3A4. The format is ADME.

Data set [16] deals with T3, Aryl hydrocarbon receptor (Homo sapiens, UniProt P35869).
T3 sequence (P35869 whole entry): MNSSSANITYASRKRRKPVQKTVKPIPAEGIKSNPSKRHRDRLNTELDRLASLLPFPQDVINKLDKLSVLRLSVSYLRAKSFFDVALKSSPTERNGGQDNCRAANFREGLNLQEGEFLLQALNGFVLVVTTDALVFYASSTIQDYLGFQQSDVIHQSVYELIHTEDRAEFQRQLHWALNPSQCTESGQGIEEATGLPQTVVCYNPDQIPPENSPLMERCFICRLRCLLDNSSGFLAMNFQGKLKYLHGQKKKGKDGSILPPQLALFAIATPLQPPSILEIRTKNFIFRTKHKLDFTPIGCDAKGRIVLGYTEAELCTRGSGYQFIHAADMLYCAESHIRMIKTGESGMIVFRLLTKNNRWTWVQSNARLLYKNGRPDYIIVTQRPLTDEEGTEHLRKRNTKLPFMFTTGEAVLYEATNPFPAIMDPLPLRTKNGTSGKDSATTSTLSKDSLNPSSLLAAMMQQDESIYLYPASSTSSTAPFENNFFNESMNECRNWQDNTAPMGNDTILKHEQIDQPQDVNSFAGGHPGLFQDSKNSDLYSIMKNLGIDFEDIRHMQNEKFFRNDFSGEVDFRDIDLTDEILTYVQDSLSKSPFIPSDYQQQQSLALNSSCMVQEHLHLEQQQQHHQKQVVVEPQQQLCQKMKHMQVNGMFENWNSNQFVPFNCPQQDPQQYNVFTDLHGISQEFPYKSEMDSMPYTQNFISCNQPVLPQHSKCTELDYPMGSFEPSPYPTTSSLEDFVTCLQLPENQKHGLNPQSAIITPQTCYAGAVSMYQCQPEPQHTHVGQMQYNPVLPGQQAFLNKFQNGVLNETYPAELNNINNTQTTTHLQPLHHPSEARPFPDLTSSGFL
The data set is described as follows: Activation of aryl hydrocarbon receptor (unknown origin) assessed as induction of CYP1A2 mRNA expression. It is filed as ADME.

In data set [17] the test system is Rattus norvegicus. The data set is described as follows: Antinociceptive activity in Sprague-Dawley rat model of capsaicin-induced secondary mechanical hyperalgesia model assessed as attenuation of nociception at 3 to 100 mg/kg, po administered 1 hr before behavioral testing by von Frey filaments test. It is filed as functional, organism-based.
Data set [18] relates to Rattus norvegicus. The data set is described as follows: Toxicity in orally dosed Sprague-Dawley rat assessed effect on animal balance by Edge test. It is filed as organism-based. As to conditions: in vivo, po.
In data set [19] the test system is Rattus norvegicus. Description: Toxicity in orally dosed Sprague-Dawley rat assessed effect on animal motor performance by Edge test. It is filed as organism-based. As to conditions: in vivo, po.
For the next data set, the system named is Plasma. The data set is described as follows: Plasma concentration in Sprague-Dawley rat at 30 mg/kg, iv. It is filed as ADME, organism-based. The settings on record: in vivo.
Data set [20] concerns Rattus norvegicus. The data set is described as follows: Cardiovascular toxicity in Sprague-Dawley rat at 30 mg/kg, iv assessed as induction of changes in mean arterial pressure. The format is organism-based, Artery. The settings on record: in vivo.
The subject of data set [21] is Rattus norvegicus. The data set is described as follows: Cardiovascular toxicity in Sprague-Dawley rat at 30 mg/kg, iv assessed as induction of changes in heart rate. The format is organism-based. The settings on record: in vivo.
Data set [22] concerns Rattus norvegicus. The data set is described as follows: Cardiovascular toxicity in Sprague-Dawley rat at 30 mg/kg, iv assessed as induction of changes in left ventricular contractility. The format is organism-based, Heart left ventricle. As to conditions: in vivo.
Data set [23] has as its system Rattus norvegicus. Description: Cardiovascular toxicity in Sprague-Dawley rat at 30 mg/kg, iv assessed as induction of changes in vascular resistance. The format is organism-based. The settings on record: in vivo.

Broadly, the inhibition is how much of the control response was suppressed. The IC50 is the concentration that gives 50% inhibition. As a reminder, the solubility is how much of the substance goes into solution per volume. Broadly, the EC50 is the concentration at which the effect is half-maximal. As a reminder, the ED50 is the dose that gives a 50% effect, or the effect in half of the subjects.

Where “and” joins values, the source holds several entries; their conditions need not be identical. Equal entries are not always repeated. Calls of active or inactive are those of the source. The calls are words filed in the database; no cut-off is given here.

T1 sequence (O95180 whole entry): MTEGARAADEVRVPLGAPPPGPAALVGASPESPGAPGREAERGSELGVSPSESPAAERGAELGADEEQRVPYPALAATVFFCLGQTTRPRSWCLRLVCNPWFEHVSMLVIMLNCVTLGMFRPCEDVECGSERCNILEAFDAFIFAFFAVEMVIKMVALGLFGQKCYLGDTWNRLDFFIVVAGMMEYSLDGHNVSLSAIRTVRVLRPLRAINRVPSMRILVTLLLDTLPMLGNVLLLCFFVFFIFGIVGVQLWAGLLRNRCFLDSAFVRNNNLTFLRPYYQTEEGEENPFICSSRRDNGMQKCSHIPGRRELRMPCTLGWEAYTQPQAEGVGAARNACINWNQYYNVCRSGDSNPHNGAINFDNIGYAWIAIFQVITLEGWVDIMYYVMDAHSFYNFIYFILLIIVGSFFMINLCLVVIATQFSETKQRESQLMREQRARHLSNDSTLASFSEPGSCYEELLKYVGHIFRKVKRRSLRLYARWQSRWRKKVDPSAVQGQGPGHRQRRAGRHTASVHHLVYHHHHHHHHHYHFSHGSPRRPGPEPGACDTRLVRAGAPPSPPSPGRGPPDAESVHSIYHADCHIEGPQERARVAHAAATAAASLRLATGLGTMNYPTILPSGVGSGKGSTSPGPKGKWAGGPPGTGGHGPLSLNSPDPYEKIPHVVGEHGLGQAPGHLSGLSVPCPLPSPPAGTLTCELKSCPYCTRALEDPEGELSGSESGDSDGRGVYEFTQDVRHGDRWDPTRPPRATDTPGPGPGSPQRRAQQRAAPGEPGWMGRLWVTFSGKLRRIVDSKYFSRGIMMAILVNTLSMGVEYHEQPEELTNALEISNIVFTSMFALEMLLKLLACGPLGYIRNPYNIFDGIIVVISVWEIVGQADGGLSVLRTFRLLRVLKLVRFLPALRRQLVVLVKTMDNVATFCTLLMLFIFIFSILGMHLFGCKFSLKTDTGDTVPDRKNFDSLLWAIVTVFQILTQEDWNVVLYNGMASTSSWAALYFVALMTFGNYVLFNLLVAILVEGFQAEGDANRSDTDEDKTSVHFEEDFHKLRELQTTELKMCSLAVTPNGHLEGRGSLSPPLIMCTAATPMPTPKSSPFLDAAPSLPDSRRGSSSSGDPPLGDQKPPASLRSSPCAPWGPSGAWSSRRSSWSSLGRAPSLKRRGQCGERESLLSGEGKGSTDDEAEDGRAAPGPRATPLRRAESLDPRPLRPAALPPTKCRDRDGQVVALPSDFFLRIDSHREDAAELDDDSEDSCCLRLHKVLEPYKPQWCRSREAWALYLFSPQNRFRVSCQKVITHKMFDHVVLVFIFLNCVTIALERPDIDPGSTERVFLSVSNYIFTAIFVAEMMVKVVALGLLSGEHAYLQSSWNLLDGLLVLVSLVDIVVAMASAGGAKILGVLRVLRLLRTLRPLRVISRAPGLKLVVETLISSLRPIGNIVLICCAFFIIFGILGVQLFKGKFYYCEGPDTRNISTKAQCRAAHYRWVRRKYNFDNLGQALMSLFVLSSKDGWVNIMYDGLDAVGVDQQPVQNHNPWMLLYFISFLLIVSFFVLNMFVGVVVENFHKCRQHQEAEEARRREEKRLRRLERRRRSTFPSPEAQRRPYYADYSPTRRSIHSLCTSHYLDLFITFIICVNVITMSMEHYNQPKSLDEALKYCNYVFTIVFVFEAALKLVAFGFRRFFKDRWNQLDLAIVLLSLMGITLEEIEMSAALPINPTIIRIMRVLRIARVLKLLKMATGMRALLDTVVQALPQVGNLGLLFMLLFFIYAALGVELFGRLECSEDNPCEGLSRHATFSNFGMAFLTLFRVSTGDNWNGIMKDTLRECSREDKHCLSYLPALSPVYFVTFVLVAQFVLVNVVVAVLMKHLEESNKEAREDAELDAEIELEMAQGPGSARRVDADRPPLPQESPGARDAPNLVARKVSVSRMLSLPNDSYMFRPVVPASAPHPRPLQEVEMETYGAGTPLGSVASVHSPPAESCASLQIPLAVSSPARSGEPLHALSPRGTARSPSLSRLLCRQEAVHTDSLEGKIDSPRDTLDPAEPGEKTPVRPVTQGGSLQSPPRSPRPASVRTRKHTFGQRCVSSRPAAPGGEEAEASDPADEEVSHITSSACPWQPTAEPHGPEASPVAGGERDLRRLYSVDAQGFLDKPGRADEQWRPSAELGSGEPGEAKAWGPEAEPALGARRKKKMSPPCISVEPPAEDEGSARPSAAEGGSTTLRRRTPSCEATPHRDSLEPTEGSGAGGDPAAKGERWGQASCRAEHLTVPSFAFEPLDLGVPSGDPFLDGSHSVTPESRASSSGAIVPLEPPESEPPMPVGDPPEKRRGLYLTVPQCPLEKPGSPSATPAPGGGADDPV
Voltage-dependent T-type calcium channel subunit alpha-1H (Rattus norvegicus, UniProt Q9EQ60), sequence (Q9EQ60 whole entry): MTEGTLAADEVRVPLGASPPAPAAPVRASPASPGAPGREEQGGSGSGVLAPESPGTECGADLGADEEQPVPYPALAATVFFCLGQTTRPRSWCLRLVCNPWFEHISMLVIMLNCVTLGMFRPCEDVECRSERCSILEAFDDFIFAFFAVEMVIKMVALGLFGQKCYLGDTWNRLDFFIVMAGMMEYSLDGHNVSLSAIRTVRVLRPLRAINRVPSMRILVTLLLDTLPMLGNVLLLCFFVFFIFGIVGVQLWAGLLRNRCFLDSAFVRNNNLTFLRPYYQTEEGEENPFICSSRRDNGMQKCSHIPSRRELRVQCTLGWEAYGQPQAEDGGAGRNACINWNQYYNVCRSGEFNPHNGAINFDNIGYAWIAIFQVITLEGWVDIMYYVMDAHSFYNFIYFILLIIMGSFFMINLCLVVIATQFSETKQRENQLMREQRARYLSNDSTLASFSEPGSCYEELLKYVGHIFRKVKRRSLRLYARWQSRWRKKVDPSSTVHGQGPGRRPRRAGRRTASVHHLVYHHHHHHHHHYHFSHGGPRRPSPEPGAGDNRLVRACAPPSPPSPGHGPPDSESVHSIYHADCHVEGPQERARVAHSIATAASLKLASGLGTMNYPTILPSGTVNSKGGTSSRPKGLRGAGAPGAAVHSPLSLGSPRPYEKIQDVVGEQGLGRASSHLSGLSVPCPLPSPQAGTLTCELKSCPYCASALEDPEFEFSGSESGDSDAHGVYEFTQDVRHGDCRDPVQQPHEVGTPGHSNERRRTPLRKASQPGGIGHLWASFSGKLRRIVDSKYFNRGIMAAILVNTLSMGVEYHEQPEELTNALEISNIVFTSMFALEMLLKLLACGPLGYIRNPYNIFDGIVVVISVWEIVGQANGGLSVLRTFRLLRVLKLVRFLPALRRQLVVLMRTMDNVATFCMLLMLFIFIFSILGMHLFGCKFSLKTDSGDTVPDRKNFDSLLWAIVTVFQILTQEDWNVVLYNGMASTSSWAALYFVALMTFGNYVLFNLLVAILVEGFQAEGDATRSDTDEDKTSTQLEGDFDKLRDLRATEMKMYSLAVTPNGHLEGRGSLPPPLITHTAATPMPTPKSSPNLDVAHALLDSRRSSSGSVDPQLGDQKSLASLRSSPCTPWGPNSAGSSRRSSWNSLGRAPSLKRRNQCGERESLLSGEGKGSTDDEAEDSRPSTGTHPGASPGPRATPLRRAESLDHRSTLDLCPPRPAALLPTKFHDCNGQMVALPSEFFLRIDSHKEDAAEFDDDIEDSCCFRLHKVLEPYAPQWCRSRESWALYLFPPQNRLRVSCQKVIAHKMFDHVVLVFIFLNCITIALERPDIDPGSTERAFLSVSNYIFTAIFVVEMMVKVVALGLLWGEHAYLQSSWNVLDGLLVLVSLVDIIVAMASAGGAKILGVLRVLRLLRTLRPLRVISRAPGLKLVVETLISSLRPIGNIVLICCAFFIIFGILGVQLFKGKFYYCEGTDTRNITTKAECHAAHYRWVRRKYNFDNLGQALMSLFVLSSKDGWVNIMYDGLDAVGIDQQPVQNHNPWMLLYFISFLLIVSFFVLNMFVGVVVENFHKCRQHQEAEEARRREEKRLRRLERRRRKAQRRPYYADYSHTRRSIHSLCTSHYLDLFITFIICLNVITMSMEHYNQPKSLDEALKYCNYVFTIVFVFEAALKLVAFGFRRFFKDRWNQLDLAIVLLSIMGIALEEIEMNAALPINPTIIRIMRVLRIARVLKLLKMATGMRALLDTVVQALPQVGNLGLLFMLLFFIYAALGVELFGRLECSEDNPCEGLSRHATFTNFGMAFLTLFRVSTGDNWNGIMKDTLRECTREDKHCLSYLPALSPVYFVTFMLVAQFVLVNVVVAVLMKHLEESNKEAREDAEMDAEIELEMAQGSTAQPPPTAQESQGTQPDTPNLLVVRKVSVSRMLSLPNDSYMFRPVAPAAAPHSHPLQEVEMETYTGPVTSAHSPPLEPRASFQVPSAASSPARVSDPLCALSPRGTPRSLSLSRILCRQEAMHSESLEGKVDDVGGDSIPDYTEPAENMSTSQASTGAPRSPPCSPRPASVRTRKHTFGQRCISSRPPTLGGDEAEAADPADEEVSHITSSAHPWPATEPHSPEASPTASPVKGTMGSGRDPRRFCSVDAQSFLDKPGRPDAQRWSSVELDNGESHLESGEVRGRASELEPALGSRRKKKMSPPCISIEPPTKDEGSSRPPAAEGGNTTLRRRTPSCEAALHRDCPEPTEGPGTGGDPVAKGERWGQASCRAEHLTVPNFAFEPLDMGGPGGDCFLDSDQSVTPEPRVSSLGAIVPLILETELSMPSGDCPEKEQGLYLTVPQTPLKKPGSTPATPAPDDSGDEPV

Regarding `O=C(c1cccc(S(=O)(=O)Nc2ccccc2F)c1)N1CCN2CCC[C@@H]2C1`, in data set [1], the remaining at 0.5 h, 1 µM is 68%. Besides, the Vd at 5 µmol/kg in [2] was 0.65 L/kg. Besides, the clearance in data set [3] is 29.8 mL/min/kg.

Regarding `O=C(c1cccc(S(=O)(=O)Nc2cccc(F)c2F)c1)N1CCN2CCC[C@@H]2C1`, the clearance in data set [3] was 20.2 mL/min/kg. Moreover, the inhibition in [4] is below 30%.

With `O=C(c1cccc(S(=O)(=O)Nc2ccccc2F)c1)N1CCN2CCC[C@H]2C1`, the clearance in data set [3] was 56 mL/min/kg. Also, in data set [4], the inhibition is below 30%.

Compound `O=C(c1cccc(S(=O)(=O)Nc2c(F)cccc2F)c1)N1CCN2CCC[C@@H]2C1` had a clearance in data set [3] of 15.3 mL/min/kg. Besides, the inhibition in [4] was below 30%.

In the case of `NCC1(CC(=O)O)CCCCC1`, the result in the data set with Rattus norvegicus [5] was Active.

Take `CC1CC(C)CN(C(=O)c2cccc(S(=O)(=O)N3c4ccccc4CC3C)c2)C1` (configuration not stated): the IC50 in data set [6] is 3 µM. Besides, in data set [1], the remaining at 0.5 h, 1 µM came to 0.3%.

As to `CC1Cc2ccccc2N1S(=O)(=O)c1cccc(C(=O)NCC2CCCCC2)c1` (configuration not stated), the IC50 in data set [6] stood at 5 µM. Also, in data set [1], the remaining at 0.5 h, 1 µM was determined as 0.1%.

On to `O=C(c1cccc(S(=O)(=O)Nc2ccc(C(F)(F)F)cc2)c1)N1CCN2CCC[C@@H]2C1`, for which the clearance in data set [3] was 7.5 mL/min/kg. For the same compound, in data set [4], the inhibition was below 30%.

Regarding `Cl.O=C(c1cc(S(=O)(=O)Nc2ccccc2F)c(F)cc1Cl)N1CCN2CCC[C@@H]2C1`, the IC50 in [6] is 2.3 µM; in data set [10], 7.6 µM. In addition, the remaining at 0.5 h, 1 µM in [1] is 81%; in [7], 95%; in data set [8] it was 100%; in data set [9] it was 88%. The Vd at 5 µmol/kg in [2] amounted to 2.7 L/kg. For the same compound, the clearance in data set [3] is 9.17 mL/min/kg. Further, the solubility in data set [11] is 489 µM; in [12] it was above 9500 µM. For the same compound, the fraction unbound in [13] was 0.111; in data set [14], 0.148. Also, the EC50 in [15] and in [16] was above 10 µM throughout. The Activity result with Rattus norvegicus [17] is “Dose-dependent effect”; in the data set on Rattus norvegicus [20], “Non-toxic”; in the data set with Rattus norvegicus [21], “Non-toxic”; in the data set on Rattus norvegicus [22], “Non-toxic”; with Rattus norvegicus [23], “Non-toxic”. Further, the ED50 with Rattus norvegicus [18] was > 300 mg kg-1 and 114 ug ml-1; in the data set with Rattus norvegicus [19] it was > 300 mg kg-1 and 114 ug ml-1. Besides, the Cp in the data set on Plasma stood at 43900 ng/mL.

Regarding `O=C(c1cccc(S(=O)(=O)Nc2cccc(F)c2F)c1)N1CCN2CCC[C@H]2C1`, in data set [3], the clearance is 38 mL/min/kg. Besides, the inhibition in data set [4] is below 30%.

As for `O=C(c1cc(S(=O)(=O)Nc2ccccc2F)c(Cl)cc1Cl)N1CCN2CCC[C@@H]2C1`, the IC50 in data set [6] came to 19 µM.

`O=C(c1cccc(S(=O)(=O)Nc2ccccc2C(F)(F)F)c1)N1CCN2CCC[C@@H]2C1` had a clearance in data set [3] of 12.3 mL/min/kg. In data set [4], the inhibition is below 30%.

With `O=C(c1cccc(S(=O)(=O)Nc2ccc(C(F)(F)F)cc2)c1)N1CCN2CCC[C@H]2C1`, the clearance in data set [3] is 13.5 mL/min/kg. In addition, in [4], the inhibition is below 30%.

Compound `O=C(c1cccc(S(=O)(=O)Nc2ccccc2Cl)c1)N1CCN2CCC[C@@H]2C1` showed a clearance in data set [3] of 32.2 mL/min/kg. Moreover, the inhibition in data set [4] is below 30%.

As to `CN(c1ccccc1F)S(=O)(=O)c1cc(C(=O)N2CCN3CCC[C@@H]3C2)c(Cl)cc1F`, the results for the remaining at 0.5 h, 1 µM in [1] and in [7] were 0.04% and below 0.01%, respectively.

Take `C[C@@H]1CN(C(=O)c2cccc(S(=O)(=O)Nc3ccc(F)cc3)c2)C[C@H](C)O1`: in [1], the remaining at 0.5 h, 1 µM turned out to be 46%. Besides, the Vd at 5 µmol/kg in [2] stood at 0.75 L/kg. This compound also had a clearance in data set [3] of 27.7 mL/min/kg.
